Laboratory results: PubChem BioAssay AID1259407 (Chemical Carcinogenesis Research Information System (CCRIS), 2018)
Active and inactive are the calls of the source. The rule behind the calls is not given here.

Tested on: CCRIS mutagenicity, Ames/micronucleus/aberration tests
Assay: CCRIS mutagenicity studies

## O=P1(N(CCCl)CCCl)NCCCO1 (stereo not drawn)
Test System: AMES SALMONELLA TYPHIMURIUM, Strain/Indicator: TA100, Metabolic Activation: RAT,LIVER, HEPATOCYTES, PHENOBARBITAL, Method: PREINCUBATION
  mutagenic call: active; positive
Test System: AMES SALMONELLA TYPHIMURIUM, Strain/Indicator: TA100, Metabolic Activation: S-9, Method: PREINCUBATION
  mutagenic call: active; positive
Test System: AMES SALMONELLA TYPHIMURIUM, Strain/Indicator: TA100, Metabolic Activation: S-9, Method: STANDARD PLATE
  mutagenic call: active; positive
Test System: AMES SALMONELLA TYPHIMURIUM, Strain/Indicator: TA1535, Metabolic Activation: NONE, Method: SPIRAL ASSAY
  mutagenic call: active; positive
Test System: AMES SALMONELLA TYPHIMURIUM, Strain/Indicator: TA1535, Metabolic Activation: RAT (MALE), LIVER, HEPATOCYTES, AROCLOR 1254, Method: STANDARD PLATE
  mutagenic call: active; positive
Test System: AMES SALMONELLA TYPHIMURIUM, Strain/Indicator: TA1535, Metabolic Activation: RAT (MALE), LIVER, HEPATOCYTES, Method: STANDARD PLATE
  mutagenic call: active; positive
Test System: AMES SALMONELLA TYPHIMURIUM, Strain/Indicator: TA1535, Metabolic Activation: RAT (PREGNANT FEMALE), LIVER, HEPATOCYTES, AROCLOR 1254, Method: STANDARD PLATE
  mutagenic call: active; positive
Test System: AMES SALMONELLA TYPHIMURIUM, Strain/Indicator: TA1535, Metabolic Activation: RAT (PREGNANT FEMALE), LIVER, HEPATOCYTES, Method: STANDARD PLATE
  mutagenic call: inactive; negative
Test System: AMES SALMONELLA TYPHIMURIUM, Strain/Indicator: TA1535, Metabolic Activation: RAT, LIVER, HEPATOCYTES, PHENOBARBITAL, Method: PREINCUBATION
  mutagenic call: active; positive
Test System: AMES SALMONELLA TYPHIMURIUM, Strain/Indicator: TA1535, Metabolic Activation: RAT, LIVER, S-9, AROCLOR 1254, Method: PREINCUBATION
  mutagenic call: active; positive
Test System: AMES SALMONELLA TYPHIMURIUM, Strain/Indicator: TA1535, Metabolic Activation: RAT, LIVER, S-9, AROCLOR 1254, Method: SPIRAL ASSAY
  mutagenic call: active; positive
Test System: AMES SALMONELLA TYPHIMURIUM, Strain/Indicator: TA1535, Metabolic Activation: RAT, LIVER, S-9, PHENOBARBITAL AND ALPHA-NAPHTHOFLAVONE, Method: STANDARD PLATE
  mutagenic call: active; positive
Test System: AMES SALMONELLA TYPHIMURIUM, Strain/Indicator: TA1535, Metabolic Activation: RAT, LIVER, S-9, PHENOBARBITAL, Method: STANDARD PLATE
  mutagenic call: active; positive
Test System: AMES SALMONELLA TYPHIMURIUM, Strain/Indicator: TA1535, Metabolic Activation: RAT, LIVER, S-9, Method: STANDARD PLATE
  mutagenic call: active; positive
Test System: AMES SALMONELLA TYPHIMURIUM, Strain/Indicator: TA1537, Metabolic Activation: NONE, Method: SPIRAL ASSAY
  mutagenic call: inactive; negative
Test System: AMES SALMONELLA TYPHIMURIUM, Strain/Indicator: TA1537, Metabolic Activation: NONE, Method: STANDARD PLATE
  mutagenic call: inactive; negative
Test System: AMES SALMONELLA TYPHIMURIUM, Strain/Indicator: TA1537, Metabolic Activation: RAT, LIVER, S-9, AROCLOR 1254, Method: SPIRAL ASSAY
  mutagenic call: inactive; negative
Test System: AMES SALMONELLA TYPHIMURIUM, Strain/Indicator: TA1537, Metabolic Activation: S-9, Method: STANDARD PLATE
  mutagenic call: inactive; negative
Test System: CHINESE HAMSTER V-79, Strain/Indicator: V-79/6-THIOGUANINE, Metabolic Activation: NONE, Method: SUSPENSION/PLATE
  mutagenic call: inactive; negative
Test System: CHINESE HAMSTER V-79, Strain/Indicator: V-79/6-THIOGUANINE, Metabolic Activation: RAT, LIVER, HEPATOCYTES, Method: SUSPENSION/PLATE
  mutagenic call: active; positive
Test System: E. COLI, Strain/Indicator: WP2 (HCR), Metabolic Activation: S-9, Method: STANDARD PLATE
  mutagenic call: active; positive
Test System: E. COLI, Strain/Indicator: WP2, Metabolic Activation: NONE, Method: FLUCTUATION (MICROTITER)
  mutagenic call: active; positive
Test System: E. COLI, Strain/Indicator: WP2 UVRA, Metabolic Activation: HAMSTER, LIVER, S-9, AROCLOR 1254, Method: STANDARD PLATE
  mutagenic call: inactive; negative
Test System: E. COLI, Strain/Indicator: WP2 UVRA, Metabolic Activation: HAMSTER, LIVER, S-9, Method: STANDARD PLATE
  mutagenic call: inactive; negative
Test System: E. COLI, Strain/Indicator: WP2 UVRA, Metabolic Activation: MOUSE, LIVER, S-9, AROCLOR 1254, Method: STANDARD PLATE
  mutagenic call: inactive; negative
Test System: E. COLI, Strain/Indicator: WP2 UVRA, Metabolic Activation: MOUSE, LIVER, S-9, Method: STANDARD PLATE
  mutagenic call: inactive; negative
Test System: E. COLI, Strain/Indicator: WP2 UVRA, Metabolic Activation: NONE, Method: FLUCTUATION (MICROTITER)
  mutagenic call: active; positive
Test System: E. COLI, Strain/Indicator: WP2 UVRA, Metabolic Activation: NONE, Method: STANDARD PLATE
  mutagenic call: inactive; negative
Test System: E. COLI, Strain/Indicator: WP2 UVRA, Metabolic Activation: RAT, LIVER, S-9, AROCLOR 1254, Method: STANDARD PLATE
  mutagenic call: inactive; negative
Test System: E. COLI, Strain/Indicator: WP2 UVRA, Metabolic Activation: RAT, LIVER, S-9, Method: STANDARD PLATE
  mutagenic call: inactive; negative
Test System: MOUSE LYMPHOMA, Strain/Indicator: L5178Y (TK+/TK-), Metabolic Activation: NONE, Method: SUSPENSION/PLATE
  mutagenic call: active; positive
Test System: UDS RAT HEPATOCYTES, Strain/Indicator: THY INCORP, Metabolic Activation: NONE, Method: AUTORADIOGRAPHY
  mutagenic call: active; positive
Test System: UDS RAT HEPATOCYTES, Strain/Indicator: THY INCORP, Metabolic Activation: NONE, Method: AUTORADIOGRAPHY (SERUM-FREE MEDIA)
  mutagenic call: active; positive
